Results: patent publication US20080319042A1, “Compositions and methods for treatment of liver disease” (priority 2007, published 2008)
Where “and” joins values, the source holds several entries; their conditions need not be identical. Equal values may be shown once.

How the values were obtained:
[1] = system: hepatitis B surface antigen (HBsAg) production; assay: Anti-HBSAg Assay (Procedure A); type: cell-based, hepatitis B virus; conditions: 50 μg/ml
Protocol: (§1) The HBV-producing human hepatoblastoma cell line, Hep G2.2.15 was maintained in DMEM supplemented with 10% fetal bovine serum (FBS), 2 mM glutamine, 100 units/ml penicillin, 100 μg/ml streptomycin and 380 μg/ml gentamicin sulfate (G418) at 37° C. under 5% CO2 in air. The Hep G2 parental cells were grown under identical conditions in MEM with Earle's salts without G418.
(§2) Hep G2.2.15 cells (190 μl) were seeded onto microtiter plates at a concentration of 20×10^4 cells/ml. The cells incubated overnight in medium without G418 after which the compound compositions (10 μl) were added. Five 2-fold serial dilutions of extracts or fractions were tested starting at 200 μg/ml final culture concentration. PBS and 3TC (lamivudine) were included as the negative and positive controls, respectively. The treated cells were incubated at 37° C. for 4 days, after which the hepatitis B surface antigen (HBsAg) production in culture supernatants was assayed. The HBsAg released into the culture medium in the presence or absence of test samples was assayed using the BIO-RAD Genetic Systems HBsAg EIA 3.0 kit (Bio-Rad, Redmond, Wash.). This enzyme immunoassay is based on the capture of HBsAg on monoclonal antibody-coated plates. Four- and twelve-fold dilutions of all culture supernatants collected were assayed in triplicate wells of the EIA plate. The percentage inhibition of HBsAg secretion in the presence of the plant samples was calculated against the negative control (PBS).

Hep G2.2.15 cells = assay: % Cell Viability in Anti-HBSAg Assay (Procedure A); type: cell-based, human; conditions: 50 μg/ml
Protocol: as §1, §2

HBsAg = assay: Anti-HBSAg Assay (Procedure B), HBsAg; type: cell-based, hepatitis B virus; parameters: HBsAg Ave.: unit not given here
Protocol: The HBV-producing human hepatoblastoma cell line, Hep G2 2.2.15 is maintained in DMEM supplemented with 10% fetal bovine serum (FBS), 2 mM glutamine, 100 units/ml penicillin, 100 μg/ml streptomycin at 37° C. under 5% CO2 in air.
Samples were dissolved in DMSO at the concentration of 20 mg/mL, then further diluted with DMEM medium to the appropriate concentration.
Hep G2 2.2.15 cells (120 μl) were seeded onto 96-well plates at a concentration of 2×10^5 cells/mL. The cells incubated for 72 h in the medium without G418, after which the test samples (120 μl) were added. Five 3-fold serial dilutions of samples were tested. PBS and 3TC (lamivudine) were included as the negative and positive controls, respectively. The treated cells were incubated at 37° C. for 9 days; with the medium with sample being changed each 3 days, after which the culture supernatant was removed for analysis of both the hepatitis B surface antigen (HBsAg) production and hepatitis B DNA expression.
The HBsAg released into the culture medium in the presence or absence of test material was assayed using the kit manufactured by Shanghai Siic Kehua Biotech Co., Ltd (Shanghai, China). This enzyme immunoassay is based on the capture of HBsAg on monoclonal antibody-coated plates. Four- and twelve-fold dilutions of all culture supernatants collected were assayed in triplicate wells of the kit plate. The percentage inhibition of HBsAg secretion in the presence of the compound was calculated against the negative control (PBS). The IC50 values, the dose that inhibited viruses by 50%, were calculated using non-linear regression analysis (percent survival versus concentration).

HBeAg = assay: Anti-HBSAg Assay (Procedure B), HBeAg; type: cell-based, hepatitis B virus; parameters: HBeAg Ave: unit not given here
HBV DNA = assay: Anti-HBV DNA Assay; type: cell-based, hepatitis B virus; conditions: for HBV DNA copies/ml: replicates, listed as HP-S2
HCV/HIV pseudovirions = assay: microbe, parasite or virus in culture; type: cell-based, hepatitis C virus; conditions: for inhibition of HCV/HIV entry: 100 μg/mL
VSVG/HIV pseudovirions = assay: VSVG/HIV pseudoviral entry into HUH7 cells; type: cell-based, vesicular stomtatis virus; conditions: 100 μg/mL, FIG. 3
influenza = influenza virus entry assay; type: cell-based; parameters: dose or concentration left out as unconfirmed; conditions: FIG. 4
Marburg = type: cell-based; parameters: dose or concentration left out as unconfirmed; conditions: FIG. 4
SARS = type: cell-based; conditions: 50 mg·mL; FIG. 4
Ebola = type: cell-based; conditions: 50 mg·mL; FIG. 4
HIV = assay: anti-HIV HOG.R5 assay; type: cell-based; conditions: 20 mcg/ml
HCV JFH1 = HCV JFH1 infectivity assay (JFH1 Foci Reduction Assay); type: cell-based, hepatitis C virus; conditions: virus preincubated with compound; Huh 7 cells; 48 hr post infection; RD8, RD16, RD17, RD18 as glucosidase hydrolysis products

SMILES: COC(=O)C1=COC(O)C2C1C(O)C(O)C2(C)O (mixture of isomers) [lamiridosin]
- % Control HBSAg [1]: 100%
- % Inhibition [1]: 0%
- anti-HBSAg assay activity (in words) ([1]; Table 1): inactive
- % Cell Viability (Hep G2.2.15 cells): 100%
- HBsAg Ave. (HBsAg; 9.375 μg/mL): 1.152
- HBsAg Inhibition % (HBsAg; 9.375 μg/mL): 0%
- HBsAg OD1 (HBsAg; 9.375 μg/mL): 1.080
- HBsAg OD2 (HBsAg; 9.375 μg/mL): 1.220
- HBsAg OD3 (HBsAg; 9.375 μg/mL): 1.157
- HBsAg Ave. (HBsAg; 18.75 μg/mL): 1.140
- HBsAg Inhibition % (HBsAg; 18.75 μg/mL): 0%
- HBsAg OD1 (HBsAg; 18.75 μg/mL): 1.208
- HBsAg OD2 (HBsAg; 18.75 μg/mL): 1.105
- HBsAg OD3 (HBsAg; 18.75 μg/mL): 1.107
- HBsAg Ave. (HBsAg; 37.5 μg/mL): 0.765
- HBsAg Inhibition % (HBsAg; 37.5 μg/mL): 29.4%
- HBsAg OD1 (HBsAg; 37.5 μg/mL): 0.797
- HBsAg OD2 (HBsAg; 37.5 μg/mL): 0.744
- HBsAg OD3 (HBsAg; 37.5 μg/mL): 0.755
- anti-HBSAg assay activity (in words) (HBsAg; 37.5 μg/ml, Table 2): inactive
- HBeAg Ave (HBeAg; 9.375 μg/mL): 1.327
- HBeAg Inhibition % (HBeAg; 9.375 μg/mL): 2.7%
- HBeAg OD1 (HBeAg; 9.375 μg/mL): 1.455
- HBeAg OD2 (HBeAg; 9.375 μg/mL): 1.416
- HBeAg OD3 (HBeAg; 9.375 μg/mL): 1.109
- HBeAg Ave (HBeAg; 18.75 μg/mL): 1.244
- HBeAg Inhibition % (HBeAg; 18.75 μg/mL): 8.5%
- HBeAg OD1 (HBeAg; 18.75 μg/mL): 1.151
- HBeAg OD2 (HBeAg; 18.75 μg/mL): 1.171
- HBeAg OD3 (HBeAg; 18.75 μg/mL): 1.410
- HBeAg Ave (HBeAg; 37.5 μg/mL): 1.195
- HBeAg Inhibition % (HBeAg; 37.5 μg/mL): 12.1%
- HBeAg OD1 (HBeAg; 37.5 μg/mL): 1.073
- HBeAg OD2 (HBeAg; 37.5 μg/mL): 1.275
- HBeAg OD3 (HBeAg; 37.5 μg/mL): 1.238
- HBV DNA Average (HBV DNA; 9.37 μg/ml): 9.81 × 10^5 copies/ml
- HBV DNA Inhibit (HBV DNA; 9.37 μg/ml): 0.00%
- HBV DNA copies/ml (HBV DNA; 9.37 μg/ml): 1.12E+6 copies/ml and 1.01E+06 copies/ml and 1.22E+06 copies/ml
- HBV DNA Average (HBV DNA; 18.75 μg/ml): 8.90 × 10^5 copies/ml
- HBV DNA Inhibit (HBV DNA; 18.75 μg/ml): 23.90%
- HBV DNA copies/ml (HBV DNA; 18.75 μg/ml): 8.22E+05 copies/ml and 8.73E+05 copies/ml and 9.76E+05 copies/ml
- HBV DNA Average (HBV DNA; 37.5 μg/ml): 6.49 × 10^5 copies/ml
- HBV DNA Inhibit (HBV DNA; 37.5 μg/ml): 44.5%
- HBV DNA copies/ml (HBV DNA; 37.5 μg/ml): 5.06E+05 copies/ml and 8.57E+05 copies/ml and 5.85E+05 copies/ml
- Exp2 (% Inhib) (HCV/HIV pseudovirions; 1 ug/mL): 56.6%
- Trial 1 (% Inhib) (HCV/HIV pseudovirions; 1 ug/mL): 70.1%
- Exp2 (% Inhib) (HCV/HIV pseudovirions; 5 ug/mL): 68.4%
- Trial 1 (% Inhib) (HCV/HIV pseudovirions; 5 ug/mL): 81.2%
- Exp2 (% Inhib) (HCV/HIV pseudovirions; 10 ug/mL): 81.8%
- Trial 1 (% Inhib) (HCV/HIV pseudovirions; 10 ug/mL): 86.8%
- Exp2 (% Inhib) (HCV/HIV pseudovirions; 50 ug/mL): 96.7%
- Trial 1 (% Inhib) (HCV/HIV pseudovirions; 50 ug/mL): 96.1%
- Exp2 (% Inhib) (HCV/HIV pseudovirions; 100 ug/mL): 99.5%
- Trial 1 (% Inhib) (HCV/HIV pseudovirions; 100 ug/mL): 99.5%
- inhibition of HCV/HIV entry (HCV/HIV pseudovirions; FIG. 1): approximately 80%
- inhibition of HCV/HIV entry (HCV/HIV pseudovirions; FIG. 1, listed as Lamiridosin): ca. 85%
- anti-hepatitis C virus activity (in words) (HCV/HIV pseudovirions; FIG. 1): did block HCV viral entry
- IC50 in the anti-HCV assay (HCV viral entry) (HCV/HIV pseudovirions; FIG. 2): 0.6 µg/mL
- IC50 (HCV/HIV pseudovirions; FIG. 2, read-out: IC50 in the anti-HCV assay (HCV viral entry)): 2.31 µM
- Imax in the anti-HCV assay (HCV/HIV pseudovirions; FIG. 2 fit): 93.9±3.5%
- VSVG/HIV pseudoviral entry blocking (VSVG/HIV pseudovirions): does not block
- activity against influenza virus entry (influenza): inactive
- activity against Marburg virus entry (Marburg): inactive
- activity against SARS virus entry (SARS): inactive
- activity against Ebola virus entry (Ebola): inactive
- activity against HIV (HOG.R5 assay) (HIV): inactive
- Estimated IC50 (inhibition of HCV JFH1 infectivity) (HCV JFH1): 20 µg/mL
